≈ marks a conversion by molar mass, not a printed value. Where two headings read alike, the source gives them in different places.
Key:
Nematode eggs = experiment: Plant pathogenic nematode inhibition test by dipping: nematode egg hatch inhibition (NY/T 1154.5-2006); type: in vivo
Procedure: A plant pathogenic nematode inhibition test is conducted by dipping with the compounds in Table 1; and by referring to NY/T 1154.5-2006 (Part 5: Dipping Test for Insecticide Ovicidal Activity), the nematode egg hatch inhibition activity of the compounds is tested, as shown in Table 2: […]

Nematode J2 = experiment: Plant pathogenic nematode inhibition test by dipping: second-stage juveniles; type: in vivo
Edaphon = Edaphon toxicity test (Test Guidelines on Environmental Safety Assessment for Chemical Pesticides)
Procedure: (§1) According to the earthworm and edaphon toxicity test procedures as prescribed in the Test Guidelines on Environmental Safety Assessment for Chemical Pesticides, earthworm and edaphon toxicity tests are conducted on compounds 1 to 60 from Table 1. The simulative usual dose of pesticide in the edaphon test is 40 ppm.

Earthworm = Earthworm toxicity test (Test Guidelines on Environmental Safety Assessment for Chemical Pesticides); type: in vivo; conditions: cell adds 'low toxicity'
Procedure: as §1

[1] = 15 d, 100 times of usual dose (simulative usual dose 40 ppm), cell adds 'low toxicity'
[2] = Test object: nematode eggs, dipping
[3] = Test object: nematode J2 (second-stage juveniles), dipping

SMILES | LC50 (Nematode eggs; in vivo) | LC50 (Nematode J2; in vivo) | Edaphon Toxicity (15 d) (Inhibition ratio when added amount is 100 times of usual dose) (Edaphon; [1]) | Earthworm Toxicity LC50 (14 d) (Earthworm) | LC50 (Nematode eggs; [2]) | LC50 (Nematode J2; [3]) | Edaphon Toxicity (15 d) (Inhibition ratio when added amount is 100 times of usual dose) (Edaphon)
O=C1CC(C(=O)OCCC(F)=C(F)F)C(c2ccc([N+](=O)[O-])cc2)O1 (centres unmarked) [Compound 58] | 10.07 µg/mL (≈ 28 µM) | 12.18 µg/mL (≈ 33.9 µM) | <50%, low toxicity | >10, low toxicity mg/L | – | – | –
COc1cccc(C2OC(=O)CC2C(=O)OCCC(F)=C(F)F)c1 (centres unmarked) [Compound 37] | 12.84 µg/mL (≈ 37.3 µM) | 13.67 µg/mL (≈ 39.7 µM) | <50%, low toxicity | >10, low toxicity mg/L | – | – | –
O=C1CC(C(=O)OCCC(F)=C(F)F)C(c2ccc(Oc3ccc(F)cc3)cc2)O1 (centres unmarked) [Compound 55] | 13.24 µg/mL (≈ 31.2 µM) | 15.36 µg/mL (≈ 36.2 µM) | <50%, low toxicity | >10, low toxicity mg/L | – | – | –
O=C1CC(C(=O)OCCC(F)=C(F)F)C(c2ccccc2C(F)(F)F)O1 (centres unmarked) [Compound 46] | 9.98 µg/mL (≈ 26.1 µM) | 11.24 µg/mL (≈ 29.4 µM) | <50%, low toxicity | >10, low toxicity mg/L | – | – | –
O=C1CC(C(=O)OCCC(F)=C(F)F)C(c2ccc(Cl)cc2Cl)O1 (centres unmarked) [Compound 9] | 10.36 µg/mL (≈ 27 µM) | 13.14 µg/mL (≈ 34.3 µM) | <50%, low toxicity | >10, low toxicity mg/L | – | – | –
COc1cccc(C2OC(=O)CC2C(=O)OCCC=C(F)F)c1 (centres unmarked) [Compound 36] | 11.24 µg/mL (≈ 34.4 µM) | 12.64 µg/mL (≈ 38.7 µM) | <50%, low toxicity | >10, low toxicity mg/L | – | – | –
O=C1CC(C(=O)OCCC(F)=C(F)F)C(c2ccc(Oc3ccc(Cl)cc3)cc2)O1 (centres unmarked) [Compound 54] | 12.40 µg/mL (≈ 28.1 µM) | 14.16 µg/mL (≈ 32.1 µM) | <50%, low toxicity | >10, low toxicity mg/L | – | – | –
O=C1CC(C(=O)OCCC(F)=C(F)F)C(c2cccc([N+](=O)[O-])c2)O1 (centres unmarked) [Compound 57] | 12.12 µg/mL (≈ 33.7 µM) | 14.23 µg/mL (≈ 39.6 µM) | <50%, low toxicity | >10, low toxicity mg/L | – | – | –
O=C1CC(C(=O)OCCC(F)=C(F)F)C(c2ccccc2Cl)O1 (centres unmarked) [Compound 7] | – | – | <50%, low toxicity | >10, low toxicity mg/L | 12.81 µg/mL (≈ 36.7 µM) | 13.25 µg/mL (≈ 38 µM) | –
Cc1ccc(Oc2ccccc2C2OC(=O)CC2C(=O)OCCC(F)=C(F)F)cc1 (centres unmarked) [Compound 53] | 8.98 µg/mL (≈ 21.4 µM) | 12.35 µg/mL (≈ 29.4 µM) | <50%, low toxicity | >10, low toxicity mg/L | – | – | –
COc1ccc(C2OC(=O)CC2C(=O)OCCC(F)=C(F)F)cc1 (centres unmarked) [Compound 39] | 11.85 µg/mL (≈ 34.4 µM) | 13.40 µg/mL (≈ 38.9 µM) | <50%, low toxicity | >10, low toxicity mg/L | – | – | –
O=C1CC(C(=O)OCCC(F)=C(F)F)C(c2cc(Cl)cc(Cl)c2)O1 (centres unmarked) [Compound 13] | 15.46 µg/mL (≈ 40.3 µM) | 16.25 µg/mL (≈ 42.4 µM) | <50%, low toxicity | >10, low toxicity mg/L | – | – | –
O=C1CC(C(=O)OCCC(F)=C(F)F)C(c2c(F)c(F)c(F)c(F)c2F)O1 (centres unmarked) [Compound 29] | 12.24 µg/mL (≈ 30.3 µM) | 13.86 µg/mL (≈ 34.3 µM) | <50%, low toxicity | >10, low toxicity mg/L | – | – | –
O=C1CC(C(=O)OCCC=C(F)F)C(c2ccccc2)O1 (centres unmarked) [Compound 1] | 11.81 µg/mL (≈ 39.9 µM) | 12.24 µg/mL (≈ 41.3 µM) | <50%, low toxicity | >10, low toxicity mg/L | – | – | –
Cc1ccc(C2OC(=O)CC2C(=O)OCCC=C(F)F)cc1 (centres unmarked) [Compound 3] | – | – | <50%, low toxicity | >10, low toxicity mg/L | 10.01 µg/mL (≈ 32.3 µM) | 10.23 µg/mL (≈ 33 µM) | –
O=C1CC(C(=O)OCCC(F)=C(F)F)C(c2ccc(C(F)(F)F)cc2F)O1 (centres unmarked) [Compound 32] | 12.14 µg/mL (≈ 30.3 µM) | 13.23 µg/mL (≈ 33.1 µM) | <50%, low toxicity | >10, low toxicity mg/L | – | – | –
O=C1CC(C(=O)OCCC(F)=C(F)F)C(c2cc(Cl)ccc2Cl)O1 (centres unmarked) [Compound 10] | 10.80 µg/mL (≈ 28.2 µM) | 13.30 µg/mL (≈ 34.7 µM) | <50%, low toxicity | >10, low toxicity mg/L | – | – | –
CCCCc1ccc(C2OC(=O)CC2C(=O)OCCC(F)=C(F)F)cc1 (centres unmarked) [Compound 6] | 11.81 µg/mL (≈ 31.9 µM) | 13.45 µg/mL (≈ 36.3 µM) | <50%, low toxicity | >10, low toxicity mg/L | – | – | –
O=C1CC(C(=O)OCCC(F)=C(F)F)C(c2ccc(Cl)cc2F)O1 (centres unmarked) [Compound 21] | 11.98 µg/mL (≈ 32.7 µM) | 13.74 µg/mL (≈ 37.5 µM) | <50%, low toxicity | >10, low toxicity mg/L | – | – | –
Nc1ccc(C2OC(=O)CC2C(=O)OCCC(F)=C(F)F)cc1 (centres unmarked) [Compound 60] | 8.40 µg/mL (≈ 25.5 µM) | 10.06 µg/mL (≈ 30.6 µM) | <50%, low toxicity | >10, low toxicity mg/L | – | – | –
O=C1CC(C(=O)OCCC=C(F)F)C(c2cc(C(F)(F)F)cc(C(F)(F)F)c2)O1 (centres unmarked) [Compound 47] | 11.41 µg/mL (≈ 26.4 µM) | 12.24 µg/mL (≈ 28.3 µM) | <50%, low toxicity | >10, low toxicity mg/L | – | – | –
O=C1CC(C(=O)OCCC(F)=C(F)F)C(c2cccc(Cl)c2)O1 (centres unmarked) [Compound 14] | 12.10 µg/mL (≈ 34.7 µM) | 13.01 µg/mL (≈ 37.3 µM) | <50%, low toxicity | >10, low toxicity mg/L | – | – | –
O=C1CC(C(=O)OCCC(F)=C(F)F)C(c2cc(Cl)cc(Cl)c2Cl)O1 (centres unmarked) [Compound 12] | 12.30 µg/mL (≈ 29.5 µM) | 13.35 µg/mL (≈ 32 µM) | <50%, low toxicity | >10, low toxicity mg/L | – | – | –
O=C1CC(C(=O)OCCC(F)=C(F)F)C(c2cc(F)cc(Cl)c2)O1 (centres unmarked) [Compound 24] | – | – | <50%, low toxicity | >10, low toxicity mg/L | 10.91 µg/mL (≈ 29.8 µM) | 12.24 µg/mL (≈ 33.4 µM) | –
O=C1CC(C(=O)OCCC(F)=C(F)F)C(c2cccc(F)c2)O1 (centres unmarked) [Compound 27] | – | – | – | >10, low toxicity mg/L | 7.85 µg/mL (≈ 23.6 µM) | 8.91 µg/mL (≈ 26.8 µM) | <50%, low toxicity
COc1c(F)cc(C2OC(=O)CC2C(=O)OCCC(F)=C(F)F)cc1F (centres unmarked) [Compound 33] | 12.08 µg/mL (≈ 31.8 µM) | 13.37 µg/mL (≈ 35.2 µM) | <50%, low toxicity | >10, low toxicity mg/L | – | – | –

Source: US10111428B2, “Nematocide containing lactonic ring and preparation method and application thereof” (priority 2015, dated 2018)
